Assay results: ChEMBL document CHEMBL4052617, “Antibacterial activity of N-methylbenzofuro[3,2-b]quinoline and N-methylbenzoindolo[3,2-b]-quinoline derivatives and study of their mode of action” (2017)
The source made the active and inactive calls. No cut-off for these calls is given here.

Columns and labels:
Escherichia coli [1] = experiment: Antibacterial activity against Escherichia coli ATCC 25922 after 18 hrs by Mueller-Hinton broth microdilution method; type: functional; conditions: ATCC 25922, 18 h
Escherichia coli [2] = experiment: Antibacterial activity against Escherichia coli ATCC […] expressing NDM-1 beta-lactamase after 18 hrs by Mueller-Hinton broth microdilution method; type: functional
Bacillus subtilis = experiment: Antibacterial activity against Bacillus subtilis 168 after 18 hrs by Mueller-Hinton broth microdilution method; type: functional; conditions: subsp. subtilis str. 168, 18 h
Pseudomonas aeruginosa = experiment: Antibacterial activity against multidrug-resistant Pseudomonas aeruginosa ATCC BAA2108 after 18 hrs by Mueller-Hinton broth microdilution method; type: functional; conditions: ATCC BAA2108, 18 h
[3] = biological target: T1, Cell division protein FtsZ (Staphylococcus aureus) (UniProt P0A031); experiment: Inhibition of recombinant N-terminal His6-tagged Staphylococcus aureus ATCC 29213 FtzS polymerization expressed in Escherichia coli BL21 (DE3) cells at 16 ug/ml in presence of GTP by fluorescence spectrometry method
T1 sequence (whole entry): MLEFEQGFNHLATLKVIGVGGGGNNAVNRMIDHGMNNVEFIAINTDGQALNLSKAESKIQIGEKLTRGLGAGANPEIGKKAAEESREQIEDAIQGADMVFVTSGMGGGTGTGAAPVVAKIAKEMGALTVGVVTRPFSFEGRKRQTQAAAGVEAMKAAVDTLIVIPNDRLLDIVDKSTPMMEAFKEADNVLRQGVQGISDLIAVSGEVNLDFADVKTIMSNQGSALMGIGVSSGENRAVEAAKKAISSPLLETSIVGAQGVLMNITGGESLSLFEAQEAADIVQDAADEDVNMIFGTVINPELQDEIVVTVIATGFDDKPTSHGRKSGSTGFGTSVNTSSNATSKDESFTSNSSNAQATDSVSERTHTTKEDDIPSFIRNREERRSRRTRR

Enterococcus faecium [4] = experiment: Antibacterial activity against vancomycin-resistant Enterococcus faecium ATCC 700221 after 18 hrs by brain heart infusion broth microdilution method; type: functional; conditions: ATCC 700221, 18 h
Enterococcus faecium [5] = experiment: Antibacterial activity against antibiotic-susceptile Enterococcus faecium ATCC 49624 after 18 hrs by brain heart infusion broth microdilution method; type: functional; conditions: ATCC 49624, 18 h
Staphylococcus aureus [6] = experiment: Antibacterial activity against Staphylococcus aureus ATCC 29213 after 18 hrs by cation adjusted Mueller-Hinton broth microdilution method; type: functional; conditions: ATCC 29213, 18 h
Staphylococcus aureus [7] = experiment: Antibacterial activity against methicillin-resistant Staphylococcus aureus ATCC BAA41 after 18 hrs by cation adjusted Mueller-Hinton broth microdilution method; type: functional; conditions: ATCC BAA41, 18 h
Klebsiella pneumoniae = experiment: Antibacterial activity against Klebsiella pneumoniae ATCC BAA2470 expressing NDM-1 beta-lactamase after 18 hrs by Mueller-Hinton broth microdilution method; type: functional; conditions: ATCC BAA2470, 18 h
[8] = biological target: T1, Cell division protein FtsZ (Staphylococcus aureus); experiment: (§1) Inhibition of recombinant N-terminal His6-tagged Staphylococcus aureus FtzS expressed in Escherichia coli BL21 (DE3) cells assessed as reduction in protein polymer thickness at 8 ug/ml preincubated for 10 mins followed by GTP addition after 15 mins by phosphotungstic acid staining based transmission electron microscopic method
[9] = biological target: T1, Cell division protein FtsZ (Staphylococcus aureus); experiment: as §1, with “protofilament bundling” for “polymer thickness”
[10] = biological target: T1, Cell division protein FtsZ (Staphylococcus aureus); experiment: (§2) Inhibition of recombinant N-terminal His6-tagged Staphylococcus aureus ATCC 29213 FtzS GTPase activity expressed in Escherichia coli BL21 (DE3) cells assessed as reduction in GTP hydrolysis at 8 ug/ml preincubated for 10 mins followed by GTP addition after 30 mins by CytoPhos reagent based assay
Escherichia coli [11] = experiment: Bactericidal activity against Escherichia coli ATCC 25922 assessed as reduction in colony forming units at 4 times MIC concentration after 4 hrs by time kill assay; type: functional
Escherichia coli [12] = experiment: Bactericidal activity against Escherichia coli ATCC 25922 assessed as reduction in colony forming units at 1 to 2 times MIC concentration after 24 hrs by time kill assay; type: functional
Staphylococcus aureus [13] = experiment: Bactericidal activity against methicillin-resistant Staphylococcus aureus ATCC BAA41 assessed as reduction in colony forming units at MIC concentration after 6 hrs by time kill assay; type: functional
[14] = biological target: T1, Cell division protein FtsZ (Staphylococcus aureus); experiment: as §2, with “16” for “8”, “addition measured” for “addition”
Staphylococcus aureus [15] = experiment: Bactericidal activity against methicillin-resistant Staphylococcus aureus ATCC BAA41 assessed as reduction in colony forming units at 1 time MIC concentration after 24 hrs by time kill assay; type: functional
[16] = biological target: T1, Cell division protein FtsZ (Staphylococcus aureus); experiment: Inhibition of recombinant N-terminal His6-tagged Staphylococcus aureus ATCC 29213 FtzS GTPase activity expressed in Escherichia coli BL21 (DE3) cells assessed as reduction in GTP hydrolysis preincubated for 10 mins followed by GTP addition measured after 30 mins by CytoPhos reagent based assay
Staphylococcus aureus [17] = experiment: Bactericidal activity against methicillin-resistant Staphylococcus aureus ATCC BAA41 assessed as reduction in colony forming units at 2 times MIC concentration after 6 hrs by time kill assay; type: functional
[18] = biological target: T2, Cell division protein FtsZ (Bacillus subtilis (strain 168)) (UniProt P17865); experiment: Inhibition of Bacillus subtilis 168 GTPase activity of FtsZ assessed as increase in cell length at 2 ug/ml after 4 hrs by phase-contrast optical microscopic analysis; conditions: Bacillus subtilis subsp. subtilis str. 168
T2 sequence (whole entry): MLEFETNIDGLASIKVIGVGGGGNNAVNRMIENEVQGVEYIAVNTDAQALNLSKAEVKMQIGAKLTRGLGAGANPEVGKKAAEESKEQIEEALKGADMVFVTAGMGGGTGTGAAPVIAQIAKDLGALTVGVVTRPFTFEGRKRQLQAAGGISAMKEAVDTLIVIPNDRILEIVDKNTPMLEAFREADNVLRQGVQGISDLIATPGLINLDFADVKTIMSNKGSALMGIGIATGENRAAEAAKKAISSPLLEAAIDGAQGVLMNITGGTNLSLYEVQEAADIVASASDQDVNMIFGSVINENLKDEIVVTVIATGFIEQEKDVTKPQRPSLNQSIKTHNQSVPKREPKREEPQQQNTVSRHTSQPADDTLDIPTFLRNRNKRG

[19] = biological target: T1, Cell division protein FtsZ (Staphylococcus aureus); experiment: Inhibition of recombinant N-terminal His6-tagged Staphylococcus aureus ATCC 29213 FtzS polymerization expressed in Escherichia coli BL21 (DE3) cells in presence of GTP by fluorescence spectrometry method
[20] = biological target: T1, Cell division protein FtsZ (Staphylococcus aureus); experiment: as §2, with “4” for “8”, “addition measured” for “addition”

SMILES	MIC (Escherichia coli [1])	MIC (Escherichia coli [2])	MIC (Bacillus subtilis)	MIC (Pseudomonas aeruginosa)	MIC (Enterococcus faecium [4])	MIC (Enterococcus faecium [5])	MIC (Staphylococcus aureus [6])	MIC (Staphylococcus aureus [7])	MIC (Klebsiella pneumoniae)	further results
COc1ccc(Nc2c3ccccc3[n+](C)c3c2oc2ccccc23)cc1.[I-]	8 µg/mL	8 µg/mL	4 µg/mL	64 µg/mL	6 µg/mL	6 µg/mL	4 µg/mL	4 µg/mL	64 µg/mL	inhibition [3]: Active; inhibition [8]: Active; inhibition [9]: Active
COc1ccccc1Nc1c2ccccc2[n+](C)c2c1[nH]c1ccccc12.[I-]	8 µg/mL	8 µg/mL	4 µg/mL	64 µg/mL	8 µg/mL	8 µg/mL	4 µg/mL	4 µg/mL	64 µg/mL	–
COc1ccc2cc3[n+](cc2c1OC)CCc1cc2c(cc1-3)OCO2.[Cl-] [BERBERINE CHLORIDE]	> 192 µg/mL	> 192 µg/mL	128 µg/mL	> 192 µg/mL	> 192 µg/mL	> 192 µg/mL	128 µg/mL	192 µg/mL	> 192 µg/mL	–
C[n+]1c2ccccc2c(Nc2ccc(F)cc2F)c2oc3ccccc3c21.[I-]	12 µg/mL	12 µg/mL	6 µg/mL	> 64 µg/mL	8 µg/mL	8 µg/mL	6 µg/mL	6 µg/mL	> 64 µg/mL	–
Cc1ccc(Nc2c3ccccc3[n+](C)c3c2[nH]c2ccccc23)cc1C.[I-]	8 µg/mL	8 µg/mL	4 µg/mL	> 64 µg/mL	8 µg/mL	8 µg/mL	4 µg/mL	4 µg/mL	> 64 µg/mL	–
C[n+]1c2ccccc2c(Nc2ccccc2)c2[nH]c3ccccc3c21.[I-]	12 µg/mL	12 µg/mL	6 µg/mL	> 64 µg/mL	8 µg/mL	8 µg/mL	6 µg/mL	6 µg/mL	> 64 µg/mL	–
COc1ccc(Nc2c3ccccc3[n+](C)c3c2[nH]c2ccccc23)cc1.[I-]	6 µg/mL	6 µg/mL	2 µg/mL	48 µg/mL	4 µg/mL	4 µg/mL	2 µg/mL	2 µg/mL	48 µg/mL	inhibition [10]: 50%; inhibition [3]: Active; inhibition (Escherichia coli [11]): Active; inhibition (Escherichia coli [12]): Active; Activity (Staphylococcus aureus [13]): 1 ×10² CFU/ml; inhibition [14]: 60%; Activity (Staphylococcus aureus [15]): 1 ×10³ CFU/ml; inhibition [16]: Dose-dependent effect; Activity (Staphylococcus aureus [17]): 1 ×10³ CFU/ml; inhibition [8]: Active; Activity [18]: Active; inhibition [19]: Dose-dependent effect; inhibition [9]: Active; inhibition [20]: 20%
C[n+]1c2ccccc2c(Nc2ccc(OC(F)(F)F)cc2)c2oc3ccccc3c21.[I-]	8 µg/mL	8 µg/mL	4 µg/mL	64 µg/mL	6 µg/mL	6 µg/mL	4 µg/mL	4 µg/mL	64 µg/mL	–
